Test results: patent US20220110916A1, “Antioxidant and Use Thereof” (Bioradical Research Institute Corp., priority 2019, published 2022)

Key:
[1] = tested on: neutrophils isolated from the peripheral blood of healthy individuals; experiment: Superoxide production amount of PMA-stimulated neutrophils with PBS solutions stored for 10 days vs immediately after preparation; assay type: cell-based, human; conditions: PBS solution stored for 10 days vs immediately after preparation; 0, 6.25, 12.5, 25, 50, 100 or 20 μmol/l; FIG. 4
Procedure: First, ED2AP, BisEp-C3, edaravone, BisEp-C1, or BisEp-C1 (H2) was added to a neutrophil of 4×10^5 cells per sample so as to achieve a predetermined concentration (0, 12.5, 25, 50, 100, or 200 μmol/l, or 0, 125, 250, 500, 1250, 2500, or 5000 μmol/l) with 5 μmol of CLA, and then the cell suspension was seeded in flat-bottomed 96-well plates. The volume of the suspension was 200 μl/well, and phenol red free Ca+, Mg+ HBSS was used as the solution. In addition, the neutrophil was stimulated by adding PMA so as to achieve a concentration of 100 ng/ml. After the stimulation, a plate reader (Envision 2104 Multilabel Reader, produced by Perkin Elmer Co., Ltd.) was used to measure the chemiluminescence value over time for 30 minutes with the PMA stimulation time being a reference. The measurement interval was 30 seconds. The sum of the chemiluminescence values obtained every 30 seconds for 30 minutes was taken as the superoxide production amount. In addition, as a control, the superoxide production amount was measured in the same manner except that each compound was not added. The relative value of the superoxide production amount when each compound was added was calculated with the superoxide production amount of the control being 100.
PBS solutions of ED2AP, BisEp-C3, and edaravone were prepared in the same manner as in Example 2 and stored for 10 days. The superoxide production amount was calculated in the same manner as in Example 4 except that the PBS solution after storage was added instead of ED2AP, BisEp-C3, edaravone, BisEp-C1 or BisEp-C1 (H2) so as to achieve a predetermined concentration (0, 6.25, 12.5, 25, 50, 100 or 20 μmol/l) of ED2AP, BisEp-C3 or edaravone. Further, PBS solutions of ED2AP, BisEp-C3, and edaravone were prepared in the same manner as in Example 2, and the superoxide production amount was calculated in the same manner except that the PBS solution immediately after preparation was used. Then, the relative value of the superoxide production amount of each sample was calculated with the superoxide production amount of the sample of 0 μmol/l being 100.

rat neuroid cells B50 [2] = experiment: Alleviation of singlet oxygen (Rose Bengal + G-LED) cytotoxicity, Alamar Blue fluorescence; assay type: cell-based; conditions: for recovery of the fluorescence intensity (cellular activity): 0, 12.5, 25, 50, or 100 μmol/l, 200 nmol/l RB + G-LED 5 minutes, FIG. 3; for cytoprotective function compared with edaravone: B50 cells, RB + G-LED singlet oxygen
Procedure: Edaravone, ED2AP and BisEp-C3 were examined whether they had the function of alleviating neuronopathy. Specifically, singlet oxygen was generated by combining Rose Bengal (RB), which is a sensitizer, with green light (G-LED), and the function of alleviating the cytotoxicity of the generated singlet oxygen was examined with the cellular activity being an indicator.
First, rat neuroid cells B50 were cultured in 12-well dishes at 2×10^5 cells/well (medium: RPMI-1640 medium containing 5% FCS) overnight. After the culturing, the medium of each well was replaced with HBSS (1000 μl/well; phenol red free Ca+, Mg+) containing 200 nmol/l RB and edaravone, ED2AP, or BisEp-C3 having a predetermined concentration (0, 12.5, 25, 50, or 100 μmol/l). The dish was then irradiated with G-LED for 5 minutes to generate singlet oxygen. Thereafter, the medium of each well was replaced with 1000 μl of HBSS and Alamar Blue was added. The dish was then allowed to react for about 2 hours in an incubator at 37° C. and 5% CO2. After the reaction, fluorescence intensity (excitation wavelength: λ-560 nm, fluorescence wavelength: λ-595 nm) was measured with a plate reader (infinite200, Tecan Trading AG). In this experimental system, the higher the cellular activity, the more Alamar Blue is taken up and the higher the fluorescence intensity. As a control, fluorescence intensity was measured in the same manner except that sodium azide (Azide, NaN3) was added instead of the compounds so as to achieve a concentration of 4 mmol/l. As a negative control (NC), fluorescence intensity was measured in the same manner except that RB was not added. The relative value of the fluorescence intensity in the sample to which each compound was added was calculated with the fluorescence intensity of the negative control being 100.

[3] = Storage stability in pH7.4-PBS or pure water at 37° C. protected from light, residual rate by HPLC; assay type: physicochemical; conditions: 200 μmol/l; for Residual rate (%) After 1 week / Residual rate (%) After 2 weeks: 37° C., protected from light; for Residual rate (%) Initial concentration: initial concentration (reference 100%)
Procedure: The storage stability of edaravone, EMPO, ED2AP, and BisEp-C3 of the following formula (A) were examined. Specifically, edaravone, EMPO, ED2AP, and BisEp-C3 were dissolved in pH7.4-PBS or pure water so as to have a final concentration of 200 μmol/l to prepare dissolved solutions of these compounds. When the compounds were difficult to be dissolved, they were dissolved in an ultrasonic cleaner with warm water at 40° C.
Under the measurement conditions for HPLC described below, the initial concentration was quantified, and then each solution was stored in an oven, which was protected from light, at 37° C., and quantified under the same measurement conditions after 1 week and 2 weeks, to determine residual rate (%) with the initial concentration (100%) being a reference.
Measurement conditions for HPLC
PDA detector (Format: SPD-M20A) HPLC Assay Conditions:
Column: Atlantis dC18 5 μm (250×4.6 mm I.D.; produced by Waters)
Column temperature: 45° C.
Detection method: UV (254 nm)
Eluate A: pH3 buffer solution (adjusted to pH3 by adding phosphoric acid to 0.05M KH2PO4 aqueous solution)/methanol=90/10

rat neuroid cells B50 [4] = experiment: Toxicity evaluation, cell viability by Alamar Blue after 24 hours; assay type: cell-based; conditions: 12.5, 25, 50, 100, or 200 μmol/l, FIG. 5
Procedure: Rat neuroid cells B50 were seeded in 12-well plates and then cultured. Edaravone (RC), ED2AP, or BisEp-C3 was added to each well so as to achieve a predetermined concentration (12.5, 25, 50, 100, or 200 μmol/l), and then incubated for 24 hours at 37° C. and 5% CO2. Cell viability in each well after the culture was measured using Alamar Blue.

SMILES | superoxide-eliminating ability after storage [1] | recovery of the fluorescence intensity (cellular activity) (rat neuroid cells B50 [2]) | cytoprotective function compared with edaravone (rat neuroid cells B50 [2]) | Residual rate (%) After 1 week ([3]; Pure water) [%] | Residual rate (%) After 2 weeks ([3]; Pure water) [%] | Residual rate (%) Initial concentration ([3]; Pure water) [%] | Residual rate (%) After 1 week ([3]; pH 7.4-PBS) [%] | Residual rate (%) After 2 weeks ([3]; pH 7.4-PBS) [%] | Residual rate (%) Initial concentration ([3]; pH 7.4-PBS) [%] | cytotoxicity (cell viability) (rat neuroid cells B50 [4])
CCN1N=C(C)/C(=C\C=C\c2c(C)nn(CC)c2O)C1=O (racemic) [BisEp-C3, 2,4-dihydro-4-[3-(1-ethyl-5-hydroxy-3-methyl-1H-pyrazol-4-yl)-2-propen-1-ylidene]-2-ethyl-5-methyl-3H-pyrazol-3-one] | maintained the superoxide-eliminating ability equivalent to that immediately after preparation even after storage | recovered in a concentration-dependent manner | higher than that of edaravone | 99.4 | 88.5 | 100 | 98.7 | 93.6 | 100 | not cytotoxic at any concentration
CC1=NN(c2ccccc2)C(=O)/C1=C/C=C/c1c(C)nn(-c2ccccc2)c1O (racemic) [ED2AP, 2,4-dihydro-4-[3-(5-hydroxy-3-methyl-1-phenyl-1H-pyrazol-4-yl)-2-propen-1-ylidene]-5-methyl-2-phenyl-3H-pyrazol-3-one] | maintained the superoxide-eliminating ability equivalent to that immediately after preparation even after storage | recovered in a concentration-dependent manner | higher than that of edaravone | 96.1 | 89.8 | 100 | 96.2 | 91.3 | 100 | not cytotoxic at any concentration
